This series is described as follows: method code SF-AS, from Ploquin, J.; Sparfel, L.; LeBaut, G.; Floc'h, R.; Welin, L.; Petit, Y.; Henry, N. (1974). Pyrophthalones. III. Properties of gamma-pyrophthalones. Eur J Med Chem, 9(5)526-533. The conditions noted are these: pH 7.4.

Structures are written as SMILES.

One may read the logD as the decadic logarithm of the distribution of all forms, ionised or not, between an organic phase and buffer at a given pH. Consider `CC(C)CN1C=CC(=C2C(=O)c3ccccc3C2=O)C=C1`, for which the log distribution coefficient (logD) was 2.76. Consider `C=CCN1C=CC(=C2C(=O)c3ccccc3C2=O)C=C1`, for which the logD worked out at 2.46. The same measure for `CC=CN1C=CC(=C2C(=O)c3ccccc3C2=O)C=C1`: 2.75.

Turning to `CC(C)N1C=CC(=C2C(=O)c3ccccc3C2=O)C=C1`, the log distribution coefficient (logD) stood at 2.44. `CCCN1C=CC(=C2C(=O)c3ccccc3C2=O)C=C1` displayed a logD of 2.64. For `O=C1C(=C2C=CN(CC(O)CO)C=C2)C(=O)c2ccccc21` (centres undefined), the pH-dependent lipophilicity (logD) is 1.36. Molecule `CCN1C=CC(=C2C(=O)c3ccccc3C2=O)C=C1` registered a logD of 2.12. `C=CCN1C=CC(=C2C(=O)c3ccccc3C2=O)C=C1C` displayed a log distribution coefficient (logD) of 2.54. Take `CCCN1C=CC(=C2C(=O)c3ccccc3C2=O)C=C1C`: the log distribution coefficient (logD) came out at 2.63.

The molecule `CC1=CC(=C2C(=O)c3ccccc3C2=O)C=C(C)N1C` returned a logD of 2.5. In turn, `CC(O)CN1C=CC(=C2C(=O)c3ccccc3C2=O)C=C1` (centres undefined) had a logD of 1.75. The molecule `CC(C)CCCCCN1C=CC(=C2C(=O)c3ccccc3C2=O)C=C1` gave a logD of 2.98. As to `COCCN1C=CC(=C2C(=O)c3ccccc3C2=O)C=C1`, the logD was 2.11. `CCCCCN1C=CC(=C2C(=O)c3ccccc3C2=O)C=C1`: the logD was determined as 3.27. The same measure for `CC=CN1C=CC(=C2C(=O)c3ccccc3C2=O)C=C1C`: 2.6. For `O=C1C(=C2C=CN(CCc3ccccc3)C=C2)C(=O)c2ccccc21`, the logD was found to be 3.3. The molecule `CCCCN1C=CC(=C2C(=O)c3ccccc3C2=O)C=C1` came in with a log distribution coefficient (logD) of 3.05. For the molecule `CC1=CC(=C2C(=O)c3ccccc3C2=O)C=CN1C(C)C`, the log distribution coefficient (logD) is 2.33. Regarding `CN1C=CC(=C2C(=O)c3ccccc3C2=O)C=C1`, the pH-dependent lipophilicity (logD) was 1.6.

For `CC1=CC(=C2C(=O)c3ccccc3C2=O)C=CN1CC(C)C`, the pH-dependent lipophilicity (logD) worked out at 2.82. The figure for `O=C1C(=C2C=CN(Cc3ccccc3)C=C2)C(=O)c2ccccc21` is 2.99; for `CCN1C=CC(=C2C(=O)c3ccccc3C2=O)C=C1C` it is 2.34.

In the case of `CC1=CC(=C2C(=O)c3ccccc3C2=O)C=CN1C`, the pH-dependent lipophilicity (logD) stood at 1.9. `CCCCCCCCCN1C=CC(=C2C(=O)c3ccccc3C2=O)C=C1`: the logD is 3.45.

The record behind these values is the SangsterLogP compilation.
